Series [1] deals with rat brain nicotinic receptor (α7 NAChR, α-Bungarotoxin binding site) (Rattus norvegicus, UniProt Q05941).
Series [2] in a line: Metabolic stability assay in human liver microsomes (HLM; Protocols 1 and 2). The series is classed as in vitro ADME. The note with it: 1 μM. The method, then:
Example B4: Metabolic Stability Assays
Studies were carried out in human and rat liver microsomes (“HLM” and “RLM,” respectively). Human and rat liver microsomes were purchased from BD Gentest. DMSO stocks were prepared for the test compounds. Aliquots of the DMSO solutions were diluted to 0.5 mM by acetonitrile, then further diluted by liver microsomes/buffer to 1.5 μM. 30 μL of 1.5 μM solutions were mixed with 15 μL of 6 mM NADPH, which had been pre-warmed to 37° C., at a final test compound concentration of 1 μM. The plates were kept in a 37° C. water bath for the duration of the experiment. At each time point (0, 5, 15, 30, 45 minutes), 135 μL of acetonitrile was added into corresponding wells. After the final time point was sampled, the plates were shaken at a vibrator (IKA, MTS 2/4) for 10 min (600 rpm/min) and then centrifuged at 5594 g for 15 min (Thermo Multifuge×3R). Aliquots of the supernatant were removed, diluted 1:1 into distilled water, and analyzed by LC-MS/MS. The peak area response ratio to internal standard (PARR) of the compounds at 5, 15, 30, 45 minutes was compared to the PARR at time 0 to determine the percent of test compound remaining at each time point. Half-lives were calculated using Excel software, fitting to a single-phase exponential decay equation.
Studies were carried out in human and rat liver microsomes. Buffer solutions were prepared as follows: Buffer A: 1.0 L of 0.1 M monobasic Potassium Phosphate buffer containing 1.0 mM EDTA; Buffer B: 1.0 L of 0.1 M Dibasic Potassium Phosphate buffer containing 1.0 mM EDTA; Buffer C: 0.1 M Potassium Phosphate buffer, 1.0 mM EDTA, pH 7.4 by titrating 700 mL of buffer B with buffer A while monitoring with a pH meter.
Reference compound (Ketanserin) and test compound spiking solutions were prepared as follows: 500 μM spiking solution: add 10 μL of 10 mM DMSO stock solution into 190 μL ACN; 1.5 μM spiking solution in microsomes (0.75 mg/mL): add 1.5 μL of 500 μM spiking solution and 18.75 μL of 20 mg/mL liver microsomes into 479.75 μL of Buffer C.
NADPH stock solution (6 mM) was prepared by dissolving NADPH into buffer C.
Assay procedure: 30 μL of 1.5 μM spiking solution containing 0.75 mg/mL microsomes solution was dispensed to the wells designated for 45 min, 30 min, 15 min, 5 min, and 0 min. The plate was pre-incubated at 37° C. for 10 minutes. 15 μL of NADPH stock solution (6 mM) was added to the wells designated as Time 45, and the timer was started. At 30 min, 15 min, and 5 min, 15 μL NADPH stock solution (6 mM) was added to the wells, respectively. At the end of incubation (0 min), 135 tit of ACN containing IS was added to all the wells. Then 15 tit of NADPH stock solution (6 mM) was added to the wells designated as Time 0. After quenching, the reaction mixtures were centrifuged at 3220 g for 10 min. Following centrifugation, 50 μL of the supernatant was transferred from each well into a 96-well sample plate containing 50 μL of ultra-pure water (Millipore) for LC/MS analysis. The peak area response (PARR) ratio to internal standard of the compounds at 5, 15, 30, and 45 minutes was compared to the PARR at time 0 to determine the percent of test compound remaining at each time point. Half-lives were calculated using Excel software, fitting to a single-phase exponential decay equation.
In general terms: Liver microsomes are vesicles of endoplasmic reticulum, rich in cytochrome P450 enzymes.

A short description of series [3]: Human plasma stability (Protocols 1 and 2). Conditions: human. The series is classed as in vitro ADME. The method, then:
Example B6: Human Plasma Stability
Studies were carried out in human plasma. All plasma was obtained from Bioreclamation and collected on sodium heparin. Plasma was adjusted to pH 7.4. A DMSO stock was first prepared for the test compound. An aliquot of the DMSO solution was dosed into 1 mL of plasma, which had been pre-warmed to 37° C., at a final test compound concentration of 1 μM. The vials were kept in a benchtop Thermomixer® for the duration of the experiment. Aliquots (100 μL) were taken at each time point (0, 15, 30, 60, and 120 minutes) and added to 96-well plates which had been pre-filled with 300 μL of acetonitrile. Samples were stored at 4° C. until the end of the experiment. After the final time point was sampled, the plate was mixed and then centrifuged at 3,000 rpm for 10 minutes. Aliquots of the supernatant were removed, diluted 1:1 into distilled water, and analyzed by LC-MS/MS. The peak area response ratio to internal standard (PARR) of the compound at 15, 30, 60 and 120 minutes was compared to the PARR at time 0 to determine the percent of test compound remaining at each time point. Half-lives were calculated using GraphPad software, fitting to a single-phase exponential decay equation.
Studies were carried out in plasma. Plasma was prepared under approval of IRB and IACUC on sodium heparin. The pH of plasma was monitored and used within the range of pH 7.4 to pH 8.0. DMSO stocks were prepared for the test compounds. Aliquots of the DMSO solutions were diluted to 0.05 mM by 0.05 mM Sodium phosphate buffer with 0.5% BSA. Then 10 μL of 0.05 mM solutions were dosed into 90 μL of plasma in duplicates (n=2), which had been pre-warmed to 37° C., at a final test compound concentration of 5 μM. The plates were kept in a 37° C. water bath for the duration of the experiment. At each time point (0, 5, 15, 30, 45, 60, and 120 minutes), 400 μL of acetonitrile was added into corresponding wells. After the final time point was sampled, the plates were shaken at the vibrator (IKA, MTS 2/4) for 10 min (600 rpm/min) and then centrifuged at 5594 g for 15 min (Thermo Multifuge×3R). Aliquots of the supernatant were removed, diluted 1:1 into distilled water, and analyzed by LC-MS/MS. The peak area response ratio to internal standard (PARR) of the compounds at 5, 15, 30, 45, 60, and 120 minutes was compared to the PARR at time 0 to determine the percent of test compound remaining at each time point. Half-lives were calculated using Excel software, fitting to a single-phase exponential decay equation.

For series [4], the target named is T1, Human α7 NAChR (Homo sapiens, UniProt P36544).
T1 construct: TriLink (mRNA); Ecocyte Bioscience (oocytes); host or cells: Xenopus laevis oocytes injected with mRNA
T1 sequence (P36544 23-502): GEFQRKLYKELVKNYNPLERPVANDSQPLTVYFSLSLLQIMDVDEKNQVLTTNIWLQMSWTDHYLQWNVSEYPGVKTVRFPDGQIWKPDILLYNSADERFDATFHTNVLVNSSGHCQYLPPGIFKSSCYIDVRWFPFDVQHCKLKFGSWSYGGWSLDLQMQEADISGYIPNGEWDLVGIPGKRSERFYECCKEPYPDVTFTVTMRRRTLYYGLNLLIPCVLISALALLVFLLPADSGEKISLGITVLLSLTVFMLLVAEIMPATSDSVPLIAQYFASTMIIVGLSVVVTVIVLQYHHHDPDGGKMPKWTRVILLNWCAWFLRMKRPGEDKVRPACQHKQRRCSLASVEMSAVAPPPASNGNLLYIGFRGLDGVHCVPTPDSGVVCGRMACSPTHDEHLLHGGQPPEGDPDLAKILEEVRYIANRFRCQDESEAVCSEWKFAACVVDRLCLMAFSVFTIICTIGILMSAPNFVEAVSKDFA
The experiment in a line: Electrophysiology screen at 1 μM in Xenopus laevis oocytes. In kind it is cell-based. The note with it: test compound 1 μM; Imax = maximal current produced by 3 mM ACh; holding voltage −70 mV. The method, then:
Example B2: Electrophysiology Screen at 1 μM in Xenopus Laevis Oocytes
Human α7 NAChR mRNA Preparation:
Human α7 NAChR plasmid was prepared by GeneWiz from accession NM_000746.5. Human α7 NAChR mRNA was prepared by TriLink at a concentration near 1 μg/μL. The human α7 NAChR mRNA was diluted in sterile water to a working concentration near 10 ng/μL.
Xenopus laevis Oocyte Injection and Maintenance:
Oocytes were obtained from Xenopus laevis frogs and treated with collagenase by Ecocyte Bioscience. Oocytes were injected with the working concentration of α7 NAChR mRNA at a volume of 50 nL for a total of approximately 0.5 ng of α7 NAChR mRNA. Oocytes were maintained in Barth's solution at a temperature of 16° C. The Barth's solution was replaced daily.
Electrophysiology Measurement:
Two-electrode voltage clamp recordings were made 3-14 days following mRNA injections at a holding voltage of −70 mV. […]
In all oocyte recordings, drug and wash solutions were applied using a custom-designed microcapillary “linear array” which allows rapid application of agonists. Currents were recorded on a PC-based computer (PClamp, Molecular Devices, Sunnyvale, Calif.). […]
Stocks of test compounds were prepared in DMSO. […] The test solution was perfused onto the oocyte until a peak current was recorded. […]

[5] abbreviates: Protocol 1, human liver microsomes, NADPH, 37° C.
Where [6] appears, read: Protocol 2, plasma pH 7.4 to 8.0, 5 μM, 37° C., read-out: T1/2.

Where a name gives a salt, the structure may show the parent alone. Read-outs that look alike come from different tables or passages of the source.

rat brain nicotinic receptor (α7 NAChR, α-Bungarotoxin binding site), sequence (Q05941 23-502): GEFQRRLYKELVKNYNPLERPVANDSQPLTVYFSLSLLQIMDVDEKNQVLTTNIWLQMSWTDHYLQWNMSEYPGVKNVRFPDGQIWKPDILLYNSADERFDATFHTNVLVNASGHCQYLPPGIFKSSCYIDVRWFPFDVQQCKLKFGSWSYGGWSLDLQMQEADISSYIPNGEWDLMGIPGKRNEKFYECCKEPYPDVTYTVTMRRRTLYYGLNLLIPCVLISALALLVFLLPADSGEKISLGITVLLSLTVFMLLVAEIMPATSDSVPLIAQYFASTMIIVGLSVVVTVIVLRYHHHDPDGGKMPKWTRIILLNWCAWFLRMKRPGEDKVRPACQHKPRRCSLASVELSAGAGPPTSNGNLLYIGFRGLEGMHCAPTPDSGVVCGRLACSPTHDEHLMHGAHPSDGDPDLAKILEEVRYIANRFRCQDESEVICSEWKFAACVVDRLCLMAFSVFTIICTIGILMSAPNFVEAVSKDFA

A word on the IC50: it is the point on the concentration scale where inhibition reaches its midpoint. The Ki is the equilibrium dissociation constant of an inhibitor or competing ligand from its target. For `COc1ccc2c(C(=O)OCC34CCN(CC3)CC4)c[nH]c2c1` [Compound 10, quinuclidin-4-ylmethyl 6-methoxy-1H-indole-3-carboxylate], in series [1], the IC50 is 321 nM and the Ki worked out at 279 nM.
As to `Cc1cc(F)cc2[nH]cc(C(=O)OCC34CCN(CC3)CC4)c12` [Compound 44, quinuclidin-4-ylmethyl 6-fluoro-4-methyl-1H-indole-3-carboxylate], the HLM in series [2] (human, microsomes) is on record as 3.5 mL/min/kg. For the same molecule, the T1/2 result in series [3] (plasma, pH 7.4) is recorded as “∞”.
The molecule `COc1cc2c(C(=O)OCC34CCN(CC3)CC4)c[nH]c2cc1F` [Compound 57, quinuclidin-4-ylmethyl 6-fluoro-5-methoxy-1H-indole-3-carboxylate] returned an HLM in series [2] (setting [5]) of 0 mL/min/kg. In series [3] (setting [6]), the half-life at 5 μM came to 5.47 h.
Take `Cl.O=C(OCC12CCN(CC1)CC2)c1c[nH]c2cc(O)c(F)cc12` [Compound 59, Quinuclidin-4-ylmethyl 5-fluoro-6-hydroxy-1H-indole-3-carboxylate hydrochloride]: the HLM in series [2] (setting [5]) worked out at 0 mL/min/kg. The half-life at 5 μM in series [3] (setting [6]) is 2.27 h.
For `Cc1cc2[nH]cc(C(=O)OCC34CCN(CC3)CC4)c2cc1Cl.Cl` [Compound 66, quinuclidin-4-ylmethyl 5-chloro-6-methyl-1H-indole-3-carboxylate hydrochloride] the same measures were 0 mL/min/kg and 5.26 h.
With `COc1cc2c(C(=O)OCC34CCN(CC3)CC4)c[nH]c2cc1Cl` [Compound 69, quinuclidin-4-ylmethyl 6-chloro 5-methoxy-1H-indole-3-carboxylate, hydrochloride], the HLM in series [2] (human, microsomes) is 8.8 mL/min/kg. This molecule returned a half-life at 5 μM in series [3] (plasma, pH 7.4) of 6.93 h.
For `Cc1ccc2[nH]cc(C(=O)OCC34CCN(CC3)CC4)c2c1C` [Compound 70, quinuclidin-4-ylmethyl 4,5-dimethyl-1H-indole-3-carboxylate] the same measures were 0 mL/min/kg and 4.16 h.
For `Cc1cc2c(C(=O)OCC34CCN(CC3)CC4)c[nH]c2cc1Cl` [Compound 78, quinuclidin-4-ylmethyl 6-chloro-5-methyl-1H-indole-3-carboxylate] the same measures were 0 mL/min/kg and 4.77 h.
As to `COc1cc2c(C(=O)OCC34CCN(CC3)CC4)c[nH]c2cc1C.Cl` [Compound 79, quinuclidin-4-ylmethyl 5-methoxy-6-methyl-1H-indole-3-carboxylate hydrochloride], the I/Imax in series [4] came to 0.259. Moreover, in series [1], the half-maximal inhibitory concentration (IC50) is 159 nM and the affinity, expressed as Ki, was 137 nM. The half-life at 5 μM in series [3] (setting [6]) turned out to be 2.71 h.
On to `Cl.O=C(OCC12CCN(CC1)CC2)c1c[nH]c2cccc(C(F)(F)F)c12` [Compound 80, Quinuclidin-4-ylmethyl 4-(trifluoromethyl)-1H-indole-3-carboxylate hydrochloride], for which, in series [4], the I/Imax is 0.032. In addition, the half-life at 5 μM in series [3] (setting [6]) turned out to be 10.9 h.
For `Cc1cc(O)cc2[nH]cc(C(=O)OCC34CCN(CC3)CC4)c12` [Compound 83, quinuclidin-4-ylmethyl 6-hydroxy-4-methyl-1H-indole-3-carboxylate], the HLM in series [2] (human, microsomes) came out at 2.7 mL/min/kg. In series [3] (plasma, pH 7.4), this molecule came in with a half-life at 5 μM of 6.48 h.
In series [2] (setting [5]), `COc1cc2[nH]cc(C(=O)OCC34CCN(CC3)CC4)c2cc1OC` [Compound 87, quinuclidin-4-ylmethyl 5,6-dimethoxy-1H-indole-3-carboxylate] came in with an HLM of 0.5 mL/min/kg. The half-life at 5 μM in series [3] (setting [6]) was found to be 2.41 h.

(Values after patent US20170166561A1, “QUINUCLIDINE COMPOUNDS FOR MODULATING ALPHA7-NICOTINIC ACETYLCHOLINE RECEPTOR ACTIVITY” (Alpharmagen, LLC, priority 2014, published 2017).)
